Experimental data taken from patent publication US20190307843A1, “SINGLE DOSE METHODS FOR PREVENTING AND TREATING FUNGAL INFECTIONS” (Cidara Therapeutics, Inc., priority 2016, published 2019).
Read-outs that look alike come from different tables or passages of the source. Starred links: 1 amine or outer side, 2 acyl side, 3 side chain; linkers in the order of their positions; H or OH if unused. Positions of bridges follow the written chain, without caps; N, C: chain ends. Non-standard residues stand in square brackets, D forms with d. Residues, ends and D or L forms follow the SMILES beside them. *: point of attachment. Orn(4R-OH,5R-OCH2CH2NMe3+) = C[N+](C)(C)CCO[C@@H](N[*:3])[C@H](O)C[C@H](N[*:1])C(=O)[*:2]; pTerphenylCO(4''-OnC5H11) = CCCCCOc1ccc(-c2ccc(-c3ccc(C(=O)*)cc3)cc2)cc1; hTyr(3S-OH,4S-OH) = N[C@H](C(=O)O)[C@H](O)[C@@H](O)c1ccc(O)cc1; Pro(3S-OH,4S-Me) = C[C@H]1CN[C@H](C(=O)O)[C@H]1O; Hyp = O=C(O)[C@@H]1C[C@@H](O)CN1

Legend:
[1] = test system: A. fumigatus clinical isolates; settings: Aspergillus fumigatus clinical isolates; SENTRY, Pfaller, et al 2017; cited from earlier work
[2] = Monkey SC local tolerability study; assay type: in vivo, cynomolgus monkey
Description: (§1) Previous toxicology studies by the IV route of administration conducted in cynomolgus monkeys have shown CD101 to be safe and well tolerated at up to at least 30 mg/kg, which generates very high systemic exposures upon initial infusion of CD101 into the bloodstream. Therefore, only local tolerability (and PK) of CD101 by SC administration required evaluation. […] Plasma concentrations were then quantified by liquid chromatography with tandem mass spectrometric detection (LC-MS/MS). Bioavailability from SC dosing was calculated by comparing the calculated area under the concentration-time profile (AUC) from SC against the AUC from IV administration of the same dose.
Therefore, a separate study was designed to evaluate the tolerability of a SC dose of CD101 as a highly concentrated solution (100 mg/mL; 30 mg/kg) in two cynomolgus monkeys. […] The drug reaches a maximum concentration within a few hours then remains nearly constant over the course of 10 days.

[3] = Pharmacokinetics of CD101 after single 30 mg/kg SC (vs IV) dose in monkeys; assay type: in vivo; settings: cynomolgus monkey, plasma; for half-life: 30 mg/kg
Description: as §1

[4] = Pharmacokinetic profile in female rats, 10 mg/kg IV and SC; settings: rat, in vivo
Text: The pharmacokinetic (PK) profile of CD101 in female rats (three per group) was characterized.

[5] = test system: C. parapsilosis; assay: In vitro susceptibility testing (CLSI M27-A3), C. parapsilosis; assay type: cell-based, Candida parapsilosis; settings: Lodderomyces parapsilosis, 24 h
Description: Ten clinical Candida strains were used for the in vivo treatment studies, including four C. albicans, three C. glabrata, and three C. parapsilosis strains (Table 15). This group was selected to encompass phenotypic variability in susceptibility to triazoles and echinocandins and based on similar fitness in the animal model as defined by the amount of growth in control animals over 24 h. The organisms were maintained, grown, and quantified on Sabouraud's dextrose agar (SDA) plates.
In vitro susceptibility testing. All isolates were tested in accordance with the standards in CLSI document M27-A3. The MICs were determined visually after 24 h of incubation as the lowest concentration of drug that causes a significant diminution (50%) of growth compared to controls. MICs were determined on three separate occasions in duplicate.

[6] = In vivo tissue distribution in SD rats after 5 mg/kg IV; settings: Sprague-Dawley, rat
Description: The in vitro activity of CD101 was evaluated against 153 A. fumigatus clinical isolates collected as part of the 2014 and 2015 JMI international SENTRY surveillance program. Susceptibility was determined by measuring the minimal effective concentration (MEC) values in accordance with CLSI broth microdilution guidelines (M38-A2). In vivo tissue distribution of CD101 in SD rats (N=3/time up to 5 d) after a 5 mg/kg IV CD101 dose. Plasma/tissue concentrations were measured by LC-MS/MS.

[7] = test system: candidemia; assay: Human subject with candidemia, single intravenous dose (Example 2); assay type: in vivo; settings: single dose of 50-800 mg acetate salt of CD101, intravenous infusion
Description: A human subject is diagnosed with candidemia using standard diagnostic procedures. The subject receives treatment with a single dose of 50-800 mg (e.g., 75±25 mg, 100±25 mg, 150±50 mg, 200±50 mg, 250±50 mg, 300±50 mg, 350±50 mg, 400±50 mg, 450±50 mg, 500±100 mg, 600±100 mg, 700±100 mg, 800±100 mg, 900±50 mg, 1000 mg±100 mg, or 1100±100 mg) of the acetate salt of CD101 administered by intravenous infusion. No other antifungal treatment is provided to the subject within one to three weeks before or after administration of the single dose CD101 treatment.

[8] = test system: Pneumocystis spp.; assay: Murine model of Pneumocystis pneumonia; settings: in vivo
Text: (§2) The in vitro activity of CD101 was previously evaluated as part of the SENTRY international surveillance program using CLSI broth microdilution methodology (M38-A2, M27-A3; Pfaller, et al 2017). […] These susceptibility data were then compared graphically to CD101 plasma concentrations from studies in healthy adults, adjusted for plasma protein binding. Nonclinical efficacy in a murine model of Pneumocystis pneumonia were also considered to evaluate CD101 doses for clinical investigation of antifungal prophylaxis.

[9] = test system: A. fumigatus ATCC 13073; assay: Disseminated aspergillosis, treatment, neutropenic ICR mice (Example 17); assay type: in vivo, Aspergillus fumigatus
Text: Survival monitored for ≥10 days.

[10] = Single-dose plasma pharmacokinetics in mice, IP; assay type: in vivo, mouse; settings: IP doses of 1, 4, 16, and 64 mg/kg
Description: Plasma from groups of three mice per time point (1, 3, 6, 12, 24, 48, and 72-h) was collected. The plasma drug concentrations were determined by liquid chromatography-tandem mass spectrometry. A noncompartmental model was used in the pharmacokinetic analysis. Elimination half-life was calculated by nonlinear least-squares technique. The area under the concentration-time curve (AUC) was calculated by the trapezoidal rule. Pharmacokinetic exposures for doses not directly measured in the PK study were estimated by linear extrapolation for higher and lower dose levels and by interpolation for dose levels within the dose range studied given the linear PK results.

[11] = Pharmacokinetics in healthy human adults (Phase 1); assay type: in vivo; settings: for AUC: human, plasma, free drug, read-out: average 24 h AUC over a 7 day period
Text: as §2

[12] = both sexes, sc, Subcutaneous 30 mg/kg
[13] = female, animal 9707, F, 30 mg/kg SC
[14] = male, animal 9697, M, 30 mg/kg SC

**Q.** What does the source list for `CCCCCOc1ccc(-c2ccc(-c3ccc(C(=O)N[C@H]4C[C@@H](O)[C@@H](OCC[N+](C)(C)C)NC(=O)[C@@H]5[C@@H](O)[C@@H](C)CN5C(=O)[C@H]([C@@H](C)O)NC(=O)[C@H]([C@H](O)[C@@H](O)c5ccc(O)cc5)NC(=O)[C@@H]5C[C@@H](O)CN5C(=O)[C@H]([C@@H](C)O)NC4=O)cc3)cc2)cc1` [CD101] ({pTerphenylCO(4''-OnC5H11)}-[Orn(4R-OH,5R-OCH2CH2NMe3+)]T[Hyp][hTyr(3S-OH,4S-OH)]T[Pro(3S-OH,4S-Me)]; lactam 1-C)?
**A.** MEC90 [1]: 0.015 µg/mL; irritation or local (injection site) adverse toxicity ([2]; single 30 mg/kg SC (100 mg/mL)): no sign of irritation or local (injection site) adverse toxicity; bodyweight or food consumption ([2]; single 30 mg/kg SC, 10 days after administration): no effect on bodyweight or food consumption; half-life [3, 12]: ~124 h; AUC(0-t) [3, 12]: 2460 µg·h/mL; Cmax [3, 12]: 13400 ng/mL; Tmax [3, 12]: 72 h; AUC(0-inf) ([3]; both sexes, sc, Subcutaneous 30 mg/kg, read-out: AUCinf): 3520 µg·h/mL; bioavailability ([3]; both sexes, subcutaneous, SC 30 mg/kg vs IV at the same dose, 10-day period): 80%; half-life ([3]; iv, IV 30 mg/kg): 49.7 h; AUC(0-t) ([3]; IV 30 mg/kg): 3140 µg·h/mL; Cmax ([3]; IV 30 mg/kg): 112000 ng/mL; Tmax ([3]; IV 30 mg/kg): 1 h; AUC(0-inf) ([3]; IV 30 mg/kg, read-out: AUCinf): 3340 µg·h/mL; half-life ([3]; female, sc, animal 9707, F, 30 mg/kg SC): 171 h; AUC(0-t) [3, 13]: 2180 µg·h/mL; Cmax [3, 13]: 10900 ng/mL; Tmax [3, 13]: 48 h; AUC(0-inf) ([3]; female, animal 9707, F, 30 mg/kg SC, read-out: AUCINF_obs): 3760 µg·h/mL; half-life ([3]; male, sc, animal 9697, M, 30 mg/kg SC): 76.2 h; AUC(0-t) [3, 14]: 2740 µg·h/mL; Cmax [3, 14]: 15900 ng/mL; Tmax [3, 14]: 96 h; AUC(0-inf) ([3]; male, animal 9697, M, 30 mg/kg SC, read-out: AUCINF_obs): 3280 µg·h/mL; Tmax ([4]; SC administration): 8 to 24 h; half-life ([4]; SC, read-out: t½ (converted)): 48 h; bioavailability ([4]; sc): 97%; MIC ([5]; C. parapsilosis 20423.072): 0.5 µg/mL; MIC ([5]; C. parapsilosis 20477.048): 1 µg/mL; MIC ([5]; C. parapsilosis 20519.069): 1 µg/mL; Kp ([6]; liver, kidney, lung, spleen, read-out: tissue/plasma exposure ratios): ~4; half-life ([6]; plasma, read-out: t1/2 in plasma (converted)): 39 h; half-life ([6]; tissues (all tissues studied), read-out: t1/2 in all tissues studied): 40 to 77 h; candidemia infection at follow-up visit [7]: confirmed to be resolved; human equivalent doses at which Pneumocystis pneumonia was prevented in mice [8]: < 50 mg; survival compared to vehicle ([9]; CD101 IV/IP 0.2, 1, or 5 mg/kg BID×5d): significant increase in survival compared to vehicle; survival ([9]; single 2 mg/kg vs 0.2 mg/kg BID×5d): Survival was comparable; elimination half-life [10]: 29 to 41 h; half-life ([10]; mouse, plasma, ip, 64 mg/kg, read-out: elimination half-life): 28 to 41 h; AUC(0-inf) ([10]; mouse, plasma): 93.2 to 40500 µg·h/mL; Cmax ([10]; mouse, plasma, read-out: Peak (Cmax) levels): 2600 to 76700 ng/mL; free drug AUC0-168 ([11]; 200 mg dose): 15.4 µg·h/mL; free drug AUC0-168 ([11]; 400 mg dose): 30.2 µg·h/mL; time plasma concentrations above the MEC90 for A. fumigatus ([11]; both 400 mg and 200 mg): 7 days; AUC ([11]; 200 mg dose): ~2.2 µg·h/mL; AUC ([11]; 400 mg dose): ~4.3 µg·h/mL; mean unbound plasma concentrations relative to MIC90 for C. albicans ([11]; single dose of 400 mg, Phase 1 subjects): above the MIC90 for C. albicans for seven days
